In ChEMBL document CHEMBL1157668, “Synthesis and structure-activity relationships of N-benzyl-N-(X-2-hydroxybenzyl)-N'-phenylureas and thioureas as antitumor agents” (Bioorg Med Chem, 2010):
pIC50: −log10 of the molar value.

What was measured:
[1] = tested on: MCF7; assay: cells; settings: Homo sapiens, MCF7, 48 h
[2] = target: Epidermal growth factor receptor (Homo sapiens, UniProt P00533); assay: biochemical
Description: Inhibition of cloned EGFR autophosphorylation expressed in baculovirus-infected Sf9 cells by solid-phase ELISA

[3] = target: Receptor tyrosine-protein kinase erbB-2 (Homo sapiens, UniProt P04626); assay: biochemical
Chain of Receptor tyrosine-protein kinase erbB-2 (P04626 whole entry): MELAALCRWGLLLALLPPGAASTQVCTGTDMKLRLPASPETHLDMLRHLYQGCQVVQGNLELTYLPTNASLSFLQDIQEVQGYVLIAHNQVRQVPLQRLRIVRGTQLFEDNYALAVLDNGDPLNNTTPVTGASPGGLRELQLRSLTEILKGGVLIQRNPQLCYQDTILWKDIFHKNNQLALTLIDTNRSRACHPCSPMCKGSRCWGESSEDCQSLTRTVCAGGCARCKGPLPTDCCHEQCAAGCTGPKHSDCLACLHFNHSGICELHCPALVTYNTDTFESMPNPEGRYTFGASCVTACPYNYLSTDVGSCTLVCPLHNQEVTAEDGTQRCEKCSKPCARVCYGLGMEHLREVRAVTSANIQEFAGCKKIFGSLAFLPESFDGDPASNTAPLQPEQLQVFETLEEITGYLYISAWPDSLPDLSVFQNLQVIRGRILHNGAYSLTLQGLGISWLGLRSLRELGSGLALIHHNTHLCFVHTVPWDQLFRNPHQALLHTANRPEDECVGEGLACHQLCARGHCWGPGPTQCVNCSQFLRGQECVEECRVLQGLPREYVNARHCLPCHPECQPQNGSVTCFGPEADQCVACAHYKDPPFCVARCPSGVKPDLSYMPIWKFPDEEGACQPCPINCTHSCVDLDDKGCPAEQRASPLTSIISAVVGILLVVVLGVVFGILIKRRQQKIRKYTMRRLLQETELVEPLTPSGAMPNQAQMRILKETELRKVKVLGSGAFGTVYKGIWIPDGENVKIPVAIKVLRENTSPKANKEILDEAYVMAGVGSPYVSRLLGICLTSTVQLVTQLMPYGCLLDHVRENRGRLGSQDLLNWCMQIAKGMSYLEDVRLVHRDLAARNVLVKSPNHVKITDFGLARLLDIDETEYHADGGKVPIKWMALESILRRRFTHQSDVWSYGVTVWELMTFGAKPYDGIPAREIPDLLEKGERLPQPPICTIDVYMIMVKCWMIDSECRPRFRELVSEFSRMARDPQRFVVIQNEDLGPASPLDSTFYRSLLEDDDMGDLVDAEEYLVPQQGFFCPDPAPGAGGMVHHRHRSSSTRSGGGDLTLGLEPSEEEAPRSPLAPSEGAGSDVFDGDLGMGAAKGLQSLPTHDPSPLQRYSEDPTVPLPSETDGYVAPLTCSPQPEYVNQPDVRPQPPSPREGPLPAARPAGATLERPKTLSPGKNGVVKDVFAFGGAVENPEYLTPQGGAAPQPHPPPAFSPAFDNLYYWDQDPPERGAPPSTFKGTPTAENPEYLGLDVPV
Description: Inhibition of human cloned HER2 autophosphorylation expressed in baculovirus-infected Sf9 cells by solid-phase ELISA

Chain of Epidermal growth factor receptor (P00533 whole entry): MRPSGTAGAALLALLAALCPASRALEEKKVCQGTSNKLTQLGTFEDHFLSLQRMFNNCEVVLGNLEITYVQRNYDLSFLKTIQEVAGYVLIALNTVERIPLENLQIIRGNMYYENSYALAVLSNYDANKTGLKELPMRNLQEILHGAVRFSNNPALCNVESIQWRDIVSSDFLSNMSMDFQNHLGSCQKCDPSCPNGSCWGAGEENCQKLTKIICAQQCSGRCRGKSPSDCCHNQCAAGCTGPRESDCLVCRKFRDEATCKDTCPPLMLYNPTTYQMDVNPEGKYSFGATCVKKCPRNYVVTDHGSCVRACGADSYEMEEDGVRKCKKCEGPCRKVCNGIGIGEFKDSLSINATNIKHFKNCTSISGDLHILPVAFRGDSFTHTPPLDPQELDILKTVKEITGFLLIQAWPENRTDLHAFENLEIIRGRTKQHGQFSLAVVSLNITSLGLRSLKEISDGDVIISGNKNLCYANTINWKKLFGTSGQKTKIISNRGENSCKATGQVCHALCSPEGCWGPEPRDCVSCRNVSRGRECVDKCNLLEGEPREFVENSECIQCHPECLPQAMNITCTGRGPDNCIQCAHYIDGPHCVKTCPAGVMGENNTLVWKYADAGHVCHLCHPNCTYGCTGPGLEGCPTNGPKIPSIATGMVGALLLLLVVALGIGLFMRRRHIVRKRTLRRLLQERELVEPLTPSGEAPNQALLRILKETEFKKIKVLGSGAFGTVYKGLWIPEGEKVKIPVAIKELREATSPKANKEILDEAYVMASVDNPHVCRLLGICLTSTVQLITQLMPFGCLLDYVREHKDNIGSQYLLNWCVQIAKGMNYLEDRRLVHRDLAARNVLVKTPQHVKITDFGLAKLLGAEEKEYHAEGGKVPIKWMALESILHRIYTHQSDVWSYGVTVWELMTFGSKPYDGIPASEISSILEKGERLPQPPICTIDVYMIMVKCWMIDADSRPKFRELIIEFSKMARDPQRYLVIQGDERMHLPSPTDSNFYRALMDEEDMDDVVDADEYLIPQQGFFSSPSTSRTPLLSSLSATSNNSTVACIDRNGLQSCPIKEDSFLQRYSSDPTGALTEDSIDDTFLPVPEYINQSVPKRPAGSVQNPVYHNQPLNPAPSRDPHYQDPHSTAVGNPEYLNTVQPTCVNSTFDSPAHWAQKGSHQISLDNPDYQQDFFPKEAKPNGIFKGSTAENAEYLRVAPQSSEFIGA

Structure (SMILES)	pIC50 [1]	pIC50 [2]	pIC50 [3]
Cc1cc(C)c(O)c(CN(Cc2ccccc2)C(=S)Nc2ccccc2)c1	4.47	< 4.30	< 4.30
Oc1c(Cl)cccc1CN(Cc1ccc(F)cc1)C(=S)Nc1ccccc1	6.28	6.17	5.85
Oc1c(Br)cccc1CN(Cc1ccc(F)cc1)C(=S)Nc1ccccc1	6.14	6.01	5.73
O=C(Nc1ccccc1)N(Cc1ccc(F)cc1)Cc1cc(Cl)cc(Cl)c1O	5.55	5.38	5.02
Cc1cccc(CN(Cc2ccc(O)cc2)C(=O)Nc2ccccc2)c1O	5.28	5.12	4.73
O=C(Nc1ccccc1)N(Cc1ccc(O)cc1)Cc1cc(Cl)cc(Cl)c1O	5.96	5.73	5.66
O=C(Nc1ccccc1)N(Cc1ccc(O)cc1)Cc1cccc(Br)c1O	6.60	5.97	5.58
CCCCN(Cc1cccc(C)c1O)C(=S)Nc1ccccc1	4.63	4.36	< 4.30
CCCCN(Cc1cccc(Cl)c1O)C(=O)Nc1ccccc1	5.03	4.49	< 4.30
CCCCN(Cc1cc(Cl)cc(Cl)c1O)C(=O)Nc1ccccc1	4.52	< 4.30	< 4.30
Oc1ccc(CN(Cc2cc(Br)cc(Br)c2O)C(=S)Nc2ccccc2)cc1	6.44	6.06	5.65
Oc1c(Cl)cc(Cl)cc1CN(Cc1ccc(F)cc1)C(=S)Nc1ccccc1	5.96	5.87	5.19
Oc1c(Br)cc(Br)cc1CN(Cc1ccc(F)cc1)C(=S)Nc1ccccc1	5.77	5.75	5.17
O=C(Nc1ccccc1)N(Cc1ccc(O)cc1)Cc1cccc(Cl)c1O	6.72	6.02	5.64
Cc1cc(C)c(O)c(CN(Cc2ccc(F)cc2)C(=S)Nc2ccccc2)c1	4.98	4.71	4.42
Cc1cc(C)c(O)c(CN(Cc2ccc(O)cc2)C(=S)Nc2ccccc2)c1	5.59	5.23	5.02
O=C(Nc1ccccc1)N(Cc1ccc(F)cc1)Cc1cccc(Cl)c1O	5.96	5.70	5.46
O=C(Nc1ccccc1)N(Cc1ccc(F)cc1)Cc1cccc(Br)c1O	5.85	5.65	5.29
Oc1ccc(CN(Cc2cccc(Cl)c2O)C(=S)Nc2ccccc2)cc1	7.52	7.10	6.46
O=C(Nc1ccccc1)N(Cc1ccc(O)cc1)Cc1cc(Br)cc(Br)c1O	5.88	5.95	5.34
Cc1cccc(CN(Cc2ccc(O)cc2)C(=S)Nc2ccccc2)c1O	5.92		5.15
CCCCN(Cc1cccc(Br)c1O)C(=S)Nc1ccccc1	4.85	4.66	4.40

Next, values leading:

pIC50 [1]	pIC50 [2]	pIC50 [3]	Structure (SMILES)
5.07	5.03	4.79	Cc1cc(C)c(O)c(CN(Cc2ccc(O)cc2)C(=O)Nc2ccccc2)c1
5.13	4.74	4.49	CCCCN(Cc1cccc(Cl)c1O)C(=S)Nc1ccccc1
4.78	4.50	< 4.30	CCCCN(Cc1cc(Br)cc(Br)c1O)C(=S)Nc1ccccc1
5.42	5.07	4.81	Cc1cccc(CN(Cc2ccc(F)cc2)C(=S)Nc2ccccc2)c1O
4.46	< 4.30	< 4.30	CCCCN(Cc1cc(Br)cc(Br)c1O)C(=O)Nc1ccccc1
5.04	4.43	< 4.30	CCCCN(Cc1cccc(Br)c1O)C(=O)Nc1ccccc1
4.59	< 4.30	< 4.30	CCCCN(Cc1cc(C)cc(C)c1O)C(=O)Nc1ccccc1
6.66	6.25	5.91	Oc1ccc(CN(Cc2cc(Cl)cc(Cl)c2O)C(=S)Nc2ccccc2)cc1
4.89	4.61	4.40	CCCCN(Cc1cc(Cl)cc(Cl)c1O)C(=S)Nc1ccccc1
4.28	< 4.30	< 4.30	CCCCN(Cc1cccc(C)c1O)C(=O)Nc1ccccc1
5.18	4.56	< 4.30	Cc1cc(C)c(O)c(CN(Cc2ccc(F)cc2)C(=O)Nc2ccccc2)c1
5.26	4.66	4.42	Cc1cccc(CN(Cc2ccc(F)cc2)C(=O)Nc2ccccc2)c1O
5.44	5.33	4.91	O=C(Nc1ccccc1)N(Cc1ccc(F)cc1)Cc1cc(Br)cc(Br)c1O
7.22	6.92	6.18	Oc1ccc(CN(Cc2cccc(Br)c2O)C(=S)Nc2ccccc2)cc1
